{"source": "patent US8466188B2", "about": "“Use of spiro-oxindole compounds as therapeutic agents” (Xenon Pharmaceuticals Inc., priority 2006, dated 2013)", "key": {"sodium channel": {"tested_on": "sodium channel", "assay": "Guanidine influx assay (14C-guanidine radiotracer flux) in a known cell line that expresses a sodium channel", "format": "cell-based, human or rat", "source_text": "This example describes an in vitro assay for testing and profiling test agents against human or rat sodium channels stably expressed in cells of either an endogenous or recombinant origin.\nThe guanidine influx assay is a radiotracer flux assay used to determine ion flux activity of sodium channels in a high-throughput microplate-based format. The assay uses ^14C-guanidine hydrochloride in combination with various known sodium channel modulators, to assay the potency of test agents. Potency is determined by an IC50 calculation. Selectivity is determined by comparing potency of the compound for the channel of interest to its potency against other sodium channels (also called ‘selectivity profiling’).\nEach of the test agents is assayed against cells that express the sodium channel of interest. Voltage gated sodium channels are either TTX sensitive or insensitive. This property is useful when evaluating the activities of a channel of interest when it resides in a mixed population with other sodium channels. The following Table 1 lists certain cell lines which are useful in screening for a certain sodium channel activity in the presence or absence of TTX.\nIt is also possible to employ recombinant cells expressing these sodium channels.\nCells expressing the channel of interest are grown according to the supplier or in the case of a recombinant cell in the presence of selective growth media such as G418 (Gibco/Invitrogen). The cells are disassociated from the culture dishes with an enzymatic solution (1×) Trypsin/EDTA (Gibco/Invitrogen) and analyzed for density and viability using haemocytometer (Neubauer). Disassociated cells are washed and resuspended in their culture media then plated into Scintiplates (Beckman Coulter Inc.) (approximately 100,000 cells/well) and incubated at 37° C./5% CO2 for 20-24 hours. After an extensive wash with Low sodium HEPES-buffered saline solution (LNHBSS) (150 mM Choline Chloride, […] (Sigma), 1 mM Calcium Chloride, 5 mM Potassium Chloride, 1 mM Magnesium Chloride, 10 mM Glucose) agents diluted with LNHBSS are added to each well. (Varying concentrations of test agent may be used). The activation/radiolabel mixture contains aconitine (Sigma), and ^14C-guanidine hydrochloride (ARC).\nAfter loading the cells with test agent and activation/radiolabel mixture, the Scintiplates are incubated at ambient temperature. Following the incubation, the Scintplates are extensively washed with LNHBSS supplemented with guanidine (Sigma). The Scintiplates are dried and then counted using a Wallac MicroBeta TriLux (Perkin-Elmer Life Sciences). The ability of the test agent to block sodium channel activity is determined by comparing the amount of ^14C-guanidine present inside the cells expressing the different sodium channels.\nIC50 value of a test agent for a specific sodium channel may be determined using the above general method. […] The IC50 curve is calculated using the 4 Parameter Logistic Model or Sigmoidal Dose-Response Model formula (fit=(A+((B−A)/(1+((C/x)^D)))).\nThe fold selectivity, factor of selectivity or multiple of selectivity, is calculated by dividing the IC50 value of the test sodium channel by the reference sodium channel, for example, Nav1.5.\nThe Example numbers provided in Table 2 correspond to the Example numbers herein: […]"}, "[1]": {"tested_on": "Nav1.4 and 1.5 in L6 cells", "format": "cell-based, rat"}, "Nav1.2 in PC12 cells": {"molecular_target": "Nav1.2 in PC12 cells (Rattus norvegicus, UniProt P04775)", "sequence (P04775 whole entry, looked up)": "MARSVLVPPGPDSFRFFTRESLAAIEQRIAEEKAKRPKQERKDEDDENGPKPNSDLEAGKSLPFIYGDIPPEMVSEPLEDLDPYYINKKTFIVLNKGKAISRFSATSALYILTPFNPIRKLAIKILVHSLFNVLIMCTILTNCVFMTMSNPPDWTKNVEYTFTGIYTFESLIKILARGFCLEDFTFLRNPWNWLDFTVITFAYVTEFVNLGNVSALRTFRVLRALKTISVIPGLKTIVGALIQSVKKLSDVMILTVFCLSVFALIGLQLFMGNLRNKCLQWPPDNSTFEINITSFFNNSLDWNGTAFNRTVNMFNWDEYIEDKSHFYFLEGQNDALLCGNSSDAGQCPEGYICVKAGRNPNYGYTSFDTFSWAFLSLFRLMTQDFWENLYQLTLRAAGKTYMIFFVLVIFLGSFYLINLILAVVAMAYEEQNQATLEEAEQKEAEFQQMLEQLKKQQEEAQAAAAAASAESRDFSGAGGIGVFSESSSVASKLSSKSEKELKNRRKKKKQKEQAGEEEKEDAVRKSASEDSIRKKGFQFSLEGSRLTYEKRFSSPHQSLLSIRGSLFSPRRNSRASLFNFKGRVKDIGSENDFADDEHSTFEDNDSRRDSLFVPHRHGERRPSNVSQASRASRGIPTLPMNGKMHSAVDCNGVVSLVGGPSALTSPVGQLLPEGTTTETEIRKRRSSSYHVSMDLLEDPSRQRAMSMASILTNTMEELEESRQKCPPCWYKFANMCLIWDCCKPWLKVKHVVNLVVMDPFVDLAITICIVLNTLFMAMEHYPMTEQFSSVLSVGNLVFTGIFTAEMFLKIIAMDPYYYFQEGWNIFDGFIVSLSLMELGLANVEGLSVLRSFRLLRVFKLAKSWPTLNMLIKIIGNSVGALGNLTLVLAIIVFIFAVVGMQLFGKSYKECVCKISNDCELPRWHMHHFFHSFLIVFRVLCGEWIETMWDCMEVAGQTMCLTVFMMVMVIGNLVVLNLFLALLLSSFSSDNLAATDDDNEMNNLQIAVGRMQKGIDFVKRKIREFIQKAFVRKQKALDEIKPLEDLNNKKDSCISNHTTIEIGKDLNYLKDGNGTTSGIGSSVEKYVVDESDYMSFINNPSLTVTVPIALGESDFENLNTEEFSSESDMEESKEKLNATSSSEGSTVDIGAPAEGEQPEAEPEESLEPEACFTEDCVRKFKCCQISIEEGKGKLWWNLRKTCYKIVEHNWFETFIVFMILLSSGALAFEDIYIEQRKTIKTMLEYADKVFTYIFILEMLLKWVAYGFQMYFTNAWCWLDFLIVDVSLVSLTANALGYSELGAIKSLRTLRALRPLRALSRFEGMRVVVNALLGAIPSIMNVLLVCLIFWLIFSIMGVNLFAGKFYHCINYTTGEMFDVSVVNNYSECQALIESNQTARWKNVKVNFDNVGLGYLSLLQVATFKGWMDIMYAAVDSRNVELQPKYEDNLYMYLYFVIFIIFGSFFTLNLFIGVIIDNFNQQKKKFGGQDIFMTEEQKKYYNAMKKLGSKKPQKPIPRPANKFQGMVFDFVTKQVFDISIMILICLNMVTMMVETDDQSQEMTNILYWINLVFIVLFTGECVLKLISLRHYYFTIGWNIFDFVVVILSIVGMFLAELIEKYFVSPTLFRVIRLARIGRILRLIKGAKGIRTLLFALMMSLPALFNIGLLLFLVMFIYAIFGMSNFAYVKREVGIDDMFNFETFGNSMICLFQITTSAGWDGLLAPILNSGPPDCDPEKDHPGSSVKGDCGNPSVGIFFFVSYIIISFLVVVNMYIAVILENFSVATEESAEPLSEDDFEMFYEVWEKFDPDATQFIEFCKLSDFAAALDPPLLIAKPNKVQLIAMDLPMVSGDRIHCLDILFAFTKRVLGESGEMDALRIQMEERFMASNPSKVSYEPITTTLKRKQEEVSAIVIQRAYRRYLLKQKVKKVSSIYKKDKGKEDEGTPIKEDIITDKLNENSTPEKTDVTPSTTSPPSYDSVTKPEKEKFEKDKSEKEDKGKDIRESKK"}, "[2]": {"tested_on": "Nav1.8 in SK-N-BE2C cells", "format": "cell-based, human"}, "Nav1.4 in CHO-K1 cells": {"tested_on": "Nav1.4 in CHO-K1 cells", "format": "cell-based, Chinese hamster"}}, "note": "pIC50: −log10 of the molar value."}
{"smiles": "CC(C)(C)OC(=O)N1CCCC(c2ccc3c(c2)C2(CO3)C(=O)Nc3ccccc32)C1", "note": "(centres unmarked) [Example 55, tert-butyl 3-(2′-oxo-1′,2′-dihydrospiro[1-benzofuran-3,3′-indol]-5-yl)piperidine-1-carboxylate]", "values": [{"measurement": "melting point", "value": "120 to 123", "unit": "°C"}, {"measurement": "pIC50", "setting": "sodium channel", "value": "< 6.00"}]}
{"smiles": "O=C(NCCN1C(=O)C2(COc3cc4c(cc32)OCO4)c2ccccc21)c1ccccc1OC(F)(F)F", "note": "(centres unmarked) [Example 59, N-[2-(2′-oxospiro[furo[2,3-f][1,3]benzodioxole-7,3′-indol]-1′(2′H)-yl)ethyl]-2-(trifluoromethoxy)benzamide]", "values": [{"measurement": "melting point", "value": "183 to 184", "unit": "°C"}, {"measurement": "pIC50", "setting": "sodium channel", "value": "6.00 to 7.00"}]}
{"smiles": "NC1=N[C@H](O)[C@H]2[C@H]3O[C@]4(O)O[C@@H]([C@@H](O)[C@@]2(N1)[C@@H]4O)[C@]3(O)CO", "note": "[TTX]", "values": [{"measurement": "block of [14C] Guanidine influx by TTX", "setting": "[1]", "value": "partially blocked by TTX (Nav1.5"}, {"measurement": "block of [14C] Guanidine influx by TTX", "setting": "Nav1.2 in PC12 cells", "value": "Guanidine influx was completely"}, {"measurement": "block of [14C] Guanidine influx by TTX", "setting": "[2]", "value": "TTX partially blocked influx"}, {"measurement": "block of [14C] Guanidine influx by TTX", "setting": "Nav1.4 in CHO-K1 cells", "value": "Guanidine influx was completely"}]}
